Test results taken from paper PMC5684323 (2017).

Legend:
[1] = system: ESE2 RNA (NMR) (RNA, single strand) AAAAAGAAGGAAGG; assay: 1H NMR titration; conditions: 50 mM NaCl; 10 mM MES pH 5.5, 10% D2O, 310 K
[2] = system: Exon 7 (RNA, mRNA element) UACAGGGUUUUAGACAAAAUCAAAAAGAAGGAAGGUGCUCACAUUCCUUAAAUUAAGGAGUAAG; assay: SPR (Biacore), immobilised RNA; conditions: 150 mM NaCl, no Mg2+ (35 mM EDTA); 10 mM HEPES pH 7.4, 0.05% P20, 0.1% DMSO, 25 °C; 10 µM tested
[3] = system: ESE2 (SPR) (RNA, single strand) AAAAAGAAGGAAGG; assay: SPR (Biacore), immobilised RNA; conditions: 150 mM NaCl, no Mg2+ (35 mM EDTA); 10 mM HEPES pH 7.4, 0.05% P20, 0.1% DMSO, 25 °C; 10 µM tested
[4] = system: STRN3 "ESE" (RNA, single strand) AAGAAGGAACGAAAGGGGAAGAAAGGGG; assay: SPR (Biacore), immobilised RNA; conditions: 150 mM NaCl, no Mg2+ (35 mM EDTA); 10 mM HEPES pH 7.4, 0.05% P20, 0.1% DMSO, 25 °C; 10 µM tested

Compound | binding [1] | binding [2] | binding [3] | binding [4]
Cc1cn2cc(-c3cc(=O)n4cc(N5CCN(C)CC5)ccc4n3)cc(F)c2n1 | yes | yes | yes | yes
Cc1cn2cc(-c3cc(=O)n4cc(N5CCN(C(=O)CCN)CC5)ccc4n3)cc(F)c2n1 | yes |  | weak | weak
